Reference: US10865191B2, “Heterocyclic compounds useful as modulators of TNF alpha” (BRISTOL-MYERS SQUIBB COMPANY, priority 2015, dated 2020)

Each molecule was assayed against TNFα (Homo sapiens, UniProt P01375) (assay: TNF induced HEK-Blue assay (NF-kB-driven secreted alkaline phosphatase reporter)). Conditions: TNFα 0.5 ng/mL, HEK-Blue-CD40L cells, 18 h; read-out: TNF induced HEK-Blue assay IC50 value.
Assay type: cell-based
Procedure: TNF or CD40L-Induced HEK-Blue Assay
Test compounds serially diluted in DMSO were plated in an assay plate (LABCYTE, Cat. # LP-0200) at final concentrations ranging from 0.004 μM to 25 μM. TNFα (final concentration 0.5 ng/mL) or CD40L (final concentration 30 ng/mL) in assay buffer [DMEM, 4.5 g/l glucose (Gibco, Cat. 21063-029), 10% FBS (Sigma, F4135), 1% Penicillin-Streptomycin (Gibco, Cat. 15140-122), 1% Anti-Anti (Gibco, Cat. 15240-112) and 2 mM L-glutamine (Gibco, Cat. 25030-081)] was then added to the assay plate. After a 30 minute pre-incubation at 37° C. and 5% CO2, HEK-Blue™-CD40L cells (INVIVOGEN, Cat. Code hkb-cd40) containing a NF-kB-driven secreted alkaline phosphatase reporter gene were seeded into the assay plate at a density of 20,000 cells per well. This plate was then incubated for 18 h at 37° C. and 5% CO2. Secreted alkaline phosphatase expression was measured using QUANTI-Blue™ (INVIVOGEN, Cat. Code rep-qb1) according to manufacturer's specifications and the assay plate was read on a PerkinElmer Envision at 620 nm.
Inhibition data for the test compound over a range of concentrations was plotted as percentage inhibition of the test compound (100%=maximum inhibition). IC50 values were determined after correcting for background [(sample read-mean of low control)/(mean of high control-mean of low control)] where by the low control is DMSO without stimulation and high control is DMSO with stimulation. The IC50 is defined as the concentration of test compound which produces 50% inhibition and was quantified using the 4 parameter logistic equation to fit the data.

TNFα, sequence (P01375 77-233 limits assumed): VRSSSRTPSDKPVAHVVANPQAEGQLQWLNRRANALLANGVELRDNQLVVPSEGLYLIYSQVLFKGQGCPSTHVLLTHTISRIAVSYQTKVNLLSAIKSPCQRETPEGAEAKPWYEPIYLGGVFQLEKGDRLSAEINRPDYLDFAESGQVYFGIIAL

Compound | IC50 [µM]
CCC(Nc1c(Cl)cnc2ccc(-c3ccc(C(C)(C)O)cc3)cc12)c1nc(C(N)=O)ccc1F (racemic) [Example 24, 6-(1-((3-chloro-6-(4-(2-hydroxypropan-2-yl)phenyl)quinolin-4-yl)amino)propyl)-5-fluoropicolinamide] | < 1
CC(Nc1c(Cl)cnc2ccc(-c3ccc(C(C)(C)O)cc3)cc12)c1nc(C(N)=O)ccc1F (racemic) [Example 27, 6-(1-((3-chloro-6-(4-(2-hydroxypropan-2-yl)phenyl)quinolin-4-yl)amino)ethyl)-5-fluoropicolinamide] | < 1
CC(Nc1c(Cl)cnc2ccc(-c3cnc(C(C)(C)O)nc3)cc12)c1nc(C(N)=O)ccc1F (racemic) [Example 28, 6-(1-((3-chloro-6-(2-(2-hydroxypropan-2-yl)pyrimidin-5-yl)quinolin-4-yl)amino)ethyl)-5-fluoropicolinamide] | < 1
CC(Nc1c(Cl)cnc2ccc(-c3cnc(N4CCNC(=O)C4)nc3)cc12)c1nc(C(=O)Nc2ccccc2)ccc1F (racemic) [Example 38, 6-(1-((3-chloro-6-(2-(3-oxopiperazin-1-yl)pyrimidin-5-yl)quinolin-4-yl)amino)ethyl)-5-fluoro-N-phenylpicolinamide] | 1 to 10
CCNC(=O)c1ccc(F)c(C(C)Nc2c(Cl)cnc3ccc(-c4cnc(N5CCNC(=O)C5)nc4)cc23)n1 (racemic) [Example 39, 6-(1-((3-chloro-6-(2-(3-oxopiperazin-1-yl)pyrimidin-5-yl)quinolin-4-yl)amino)ethyl)-N-ethyl-5-fluoropicolinamide] | < 1
CC1Cc2ccccc2N1Nc1c(Cl)cnc2ccc(-c3cnc(C(C)(C)O)nc3)cc12 (racemic) [Example 48, 2-(5-(3-chloro-4-((2-methylindolin-1-yl)amino)quinolin-6-yl)pyrimidin-2-yl)propan-2-ol] | < 1
CC(C)(O)c1ncc(-c2ccc3ncc(Cl)c(NC(c4ccccc4F)C(C)(C)O)c3c2)cn1 (racemic) [Example 49, 1-((3-chloro-6-(2-(2-hydroxypropan-2-yl)pyrimidin-5-yl)quinolin-4-yl)amino)-1-(2-fluorophenyl)-2-methylpropan-2-ol] | < 1
CCC(Nc1c(Cl)cnc2ccc(-c3cnc(C(C)(C)O)nc3)cc12)C1CCC1 (racemic) [Example 50, 2-(5-(3-chloro-4-((1-cyclobutylpropyl)amino)quinolin-6-yl)pyrimidin-2-yl)propan-2-ol] | < 1
CC(C)C(Nc1c(Cl)cnc2ccc(-c3cnc(C(C)(C)O)nc3)cc12)c1ccccn1 (racemic) [Example 51, 2-(5-(3-chloro-4-((2-methyl-1-(pyridin-2-yl)propyl)amino)quinolin-6-yl)pyrimidin-2-yl)propan-2-ol] | < 1
CCC(Nc1c(Cl)cnc2ccc(-c3cnc(C(C)(C)O)nc3)cc12)c1ccccn1 (racemic) [Example 52, 2-(5-(3-chloro-4-((1-(pyridin-2-yl)propyl)amino)quinolin-6-yl)pyrimidin-2-yl)propan-2-ol] | < 1
CC(C)(O)c1ncc(-c2ccc3ncc(Cl)c(NC(c4ccccc4)C(F)F)c3c2)cn1 (racemic) [Example 57, 2-(5-(3-chloro-4-((2,2-difluoro-1-phenylethyl)amino)quinolin-6-yl)pyrimidin-2-yl)propan-2-ol] | < 1
CC(Nc1c(Cl)cnc2ccc(-c3cnc(C(C)(C)O)nc3)cc12)c1cc(Cl)ccn1 (racemic) [Example 62, 2-(5-(3-chloro-4-((1-(4-chloropyridin-2-yl)ethyl)amino)quinolin-6-yl)pyrimidin-2-yl)propan-2-ol] | 1 to 10
CCC(Nc1c(Cl)cnc2ccc(-c3cnc(C(C)(C)O)nc3)cc12)c1nc(Br)ccc1F (racemic) [Example 64, 2-(5-(4-((1-(6-bromo-3-fluoropyridin-2-yl)propyl)amino)-3-chloroquinolin-6-yl)pyrimidin-2-yl)propan-2-ol] | < 1
Cc1ccc(C)c(Nc2c(Cl)c(N)nc3ccc(-c4cnc(NCC(O)CO)nc4)cc23)c1 (racemic) [Example 73, 3-((5-(2-amino-3-chloro-4-((2,5-dimethylphenyl)amino)quinolin-6-yl)pyrimidin-2-yl)amino)propane-1,2-diol] | 1 to 10
CC(Nc1c(Cl)cnc2ccc(-c3cnc(C(C)(C)O)nc3)cc12)[C@@H]1CCCNC1 (mixture of isomers) [Example 98, (R)-2-(5-(3-chloro-4-((1-(piperidin-3-yl)ethyl)amino)quinolin-6-yl)pyrimidin-2-yl)propan-2-ol] | 10 to 25
CC(Nc1c(Cl)cnc2c(Cl)cc(Br)cc12)c1ccccc1F (racemic) [Example 122, 6-bromo-3,8-dichloro-N-(1-(2-fluorophenyl)ethyl)quinolin-4-amine] | 10 to 25
C=Cc1ccc(F)c(C(CC)Nc2c(Cl)cnc3ccc(-c4cnc(C(C)(C)O)nc4)cc23)n1 (racemic) [Example 126, 2-(5-(3-chloro-4-((1-(3-fluoro-6-vinylpyridin-2-yl)propyl)amino)quinolin-6-yl)pyrimidin-2-yl)propan-2-ol] | < 1
CC(Cc1ccco1)Nc1c(Cl)cnc2ccc(-c3cnc(C(C)(C)O)nc3)cc12 (racemic) [Example 133, 2-(5-(3-chloro-4-((1-(furan-2-yl)propan-2-yl)amino)quinolin-6-yl)pyrimidin-2-yl)propan-2-ol] | < 1
CC1=C(CC(C)Nc2c(Cl)cnc3ccc(-c4cnc(C(C)(C)O)nc4)cc23)CCC1(C)C (racemic) [Example 134, 2-(5-(3-chloro-4-((1-(2,3,3-trimethylcyclopent-1-en-1-yl)propan-2-yl)amino)quinolin-6-yl)pyrimidin-2-yl) propan-2-ol] | 1 to 10
CC(C)CC(C)Nc1c(Cl)cnc2ccc(-c3cnc(C(C)(C)O)nc3)cc12 (racemic) [Example 135, 2-(5-(3-chloro-4-((4-methylpentan-2-yl)amino)quinolin-6-yl)pyrimidin-2-yl)propan-2-ol] | < 1
CC(Cc1ccc(OC(F)(F)F)cc1)Nc1c(Cl)cnc2ccc(-c3cnc(C(C)(C)O)nc3)cc12 (racemic) [Example 137, 2-(5-(3-chloro-4-((1-(4-(trifluoromethoxy)phenyl)propan-2-yl)amino)quinolin-6-yl)pyrimidin-2-yl)propan-2-ol] | 1 to 10
CC(Cc1cn(C)c(=O)c2ccccc12)Nc1c(Cl)cnc2ccc(-c3cnc(C(C)(C)O)nc3)cc12 (racemic) [Example 138, 4-(2-((3-chloro-6-(2-(2-hydroxypropan-2-yl)pyrimidin-5-yl)quinolin-4-yl)amino)propyl)-2-methylisoquinolin-1(2H)-one] | 10 to 25
CCCCCC(C)Nc1c(Cl)cnc2ccc(-c3cnc(C(C)(C)O)nc3)cc12 (racemic) [Example 139, 2-(5-(3-chloro-4-(heptan-2-ylamino)quinolin-6-yl)pyrimidin-2-yl) propan-2-ol] | < 1
CC(CC1CCCC1)Nc1c(Cl)cnc2ccc(-c3cnc(C(C)(C)O)nc3)cc12 (racemic) [Example 140, 2-(5-(3-chloro-4-((1-cyclopentylpropan-2-yl)amino)quinolin-6-yl)pyrimidin-2-yl)propan-2-ol] | < 1
Cc1ccc2c(CCC(C)Nc3c(Cl)cnc4ccc(-c5cnc(C(C)(C)O)nc5)cc34)c[nH]c2c1 (racemic) [Example 141, 2-(5-(3-chloro-4-((4-(6-methyl-1H-indol-3-yl)butan-2-yl)amino)quinolin-6-yl)pyrimidin-2-yl)propan-2-ol] | 10 to 25
CC(Nc1c(Cl)cnc2ccc(-c3cnc(C(C)(C)O)nc3)cc12)C1(c2ccc(Cl)cc2)CCCC1 (racemic) [Example 142, 2-(5-(3-chloro-4-((1-(1-(4-chlorophenyl)cyclopentyl)ethyl)amino)quinolin-6-yl)pyrimidin-2-yl)propan-2-ol] | 10 to 25
CC(CC(O)(c1ccccc1)c1ccccc1)Nc1c(Cl)cnc2ccc(-c3cnc(C(C)(C)O)nc3)cc12 (racemic) [Example 143, 3-((3-chloro-6-(2-(2-hydroxypropan-2-yl)pyrimidin-5-yl)quinolin-4-yl)amino)-1,1-diphenylbutan-1-ol] | 10 to 25
CC(Cc1cccc2[nH]ccc12)Nc1c(Cl)cnc2ccc(-c3cnc(C(C)(C)O)nc3)cc12 (racemic) [Example 144, 2-(5-(4-((1-(1H-indol-4-yl)propan-2-yl)amino)-3-chloroquinolin-6-yl)pyrimidin-2-yl)propan-2-ol] | 1 to 10
CC(Nc1c(Cl)cnc2ccc(-c3cnc(C(C)(C)O)nc3)cc12)c1cccc(C(F)(F)F)c1 (racemic) [Example 147, 2-(5-(3-chloro-4-((1-(3-(trifluoromethyl)phenyl)ethyl)amino)quinolin-6-yl)pyrimidin-2-yl)propan-2-ol] | 1 to 10
Cc1ccc(C)c(C(C)Nc2c(Cl)cnc3ccc(-c4cnc(C(C)(C)O)nc4)cc23)c1 (racemic) [Example 149, 2-(5-(3-chloro-4-((1-(2,5-dimethylphenyl)ethyl)amino)quinolin-6-yl)pyrimidin-2-yl)propan-2-ol] | 1 to 10
